The text below walks through data of ChEMBL document CHEMBL5696442, “Discovery of type II inhibitors of TGFβ-activated kinase 1 (TAK1) and mitogen-activated protein kinase kinase kinase kinase 2 (MAP4K2)” (J Med Chem, 2015).

Test [1] concerns the target Hepatocyte growth factor receptor (Homo sapiens) (UniProt P08581). In words: Inhibition of MET ACT labeling site in human Huh-7 cell lysate at 1 uM by KiNativ Profiling analysis relative to control. It is filed as subcellular.
Test [2] deals with T1, Mitogen-activated protein kinase kinase kinase 2 (Homo sapiens) (UniProt Q9Y2U5).
T1 sequence (whole entry): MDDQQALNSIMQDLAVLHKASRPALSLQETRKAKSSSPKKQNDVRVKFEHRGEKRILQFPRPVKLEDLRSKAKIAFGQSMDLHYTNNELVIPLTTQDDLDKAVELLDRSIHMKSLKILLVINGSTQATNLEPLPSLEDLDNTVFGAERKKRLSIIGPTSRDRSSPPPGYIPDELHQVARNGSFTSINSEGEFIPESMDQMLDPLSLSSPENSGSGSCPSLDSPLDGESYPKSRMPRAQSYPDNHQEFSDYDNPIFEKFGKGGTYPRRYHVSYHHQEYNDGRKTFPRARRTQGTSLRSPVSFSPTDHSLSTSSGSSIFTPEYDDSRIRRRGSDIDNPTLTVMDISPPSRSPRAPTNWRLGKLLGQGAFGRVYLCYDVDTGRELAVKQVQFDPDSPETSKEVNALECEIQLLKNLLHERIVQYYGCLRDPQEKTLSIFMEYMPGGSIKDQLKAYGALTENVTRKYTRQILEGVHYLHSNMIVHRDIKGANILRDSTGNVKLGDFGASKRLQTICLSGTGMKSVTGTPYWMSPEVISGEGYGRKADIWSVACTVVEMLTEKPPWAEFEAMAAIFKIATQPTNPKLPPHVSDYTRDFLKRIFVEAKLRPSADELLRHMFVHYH
Kind of test: Inhibition of MAP3K2 (unknown origin) at 1 uM by Ambit Kinomescan binding assay relative to control; values are per cent of control.

The target of test [3] is T2, Mitogen-activated protein kinase kinase kinase 6 (Homo sapiens) (UniProt O95382).
T2 sequence (whole entry): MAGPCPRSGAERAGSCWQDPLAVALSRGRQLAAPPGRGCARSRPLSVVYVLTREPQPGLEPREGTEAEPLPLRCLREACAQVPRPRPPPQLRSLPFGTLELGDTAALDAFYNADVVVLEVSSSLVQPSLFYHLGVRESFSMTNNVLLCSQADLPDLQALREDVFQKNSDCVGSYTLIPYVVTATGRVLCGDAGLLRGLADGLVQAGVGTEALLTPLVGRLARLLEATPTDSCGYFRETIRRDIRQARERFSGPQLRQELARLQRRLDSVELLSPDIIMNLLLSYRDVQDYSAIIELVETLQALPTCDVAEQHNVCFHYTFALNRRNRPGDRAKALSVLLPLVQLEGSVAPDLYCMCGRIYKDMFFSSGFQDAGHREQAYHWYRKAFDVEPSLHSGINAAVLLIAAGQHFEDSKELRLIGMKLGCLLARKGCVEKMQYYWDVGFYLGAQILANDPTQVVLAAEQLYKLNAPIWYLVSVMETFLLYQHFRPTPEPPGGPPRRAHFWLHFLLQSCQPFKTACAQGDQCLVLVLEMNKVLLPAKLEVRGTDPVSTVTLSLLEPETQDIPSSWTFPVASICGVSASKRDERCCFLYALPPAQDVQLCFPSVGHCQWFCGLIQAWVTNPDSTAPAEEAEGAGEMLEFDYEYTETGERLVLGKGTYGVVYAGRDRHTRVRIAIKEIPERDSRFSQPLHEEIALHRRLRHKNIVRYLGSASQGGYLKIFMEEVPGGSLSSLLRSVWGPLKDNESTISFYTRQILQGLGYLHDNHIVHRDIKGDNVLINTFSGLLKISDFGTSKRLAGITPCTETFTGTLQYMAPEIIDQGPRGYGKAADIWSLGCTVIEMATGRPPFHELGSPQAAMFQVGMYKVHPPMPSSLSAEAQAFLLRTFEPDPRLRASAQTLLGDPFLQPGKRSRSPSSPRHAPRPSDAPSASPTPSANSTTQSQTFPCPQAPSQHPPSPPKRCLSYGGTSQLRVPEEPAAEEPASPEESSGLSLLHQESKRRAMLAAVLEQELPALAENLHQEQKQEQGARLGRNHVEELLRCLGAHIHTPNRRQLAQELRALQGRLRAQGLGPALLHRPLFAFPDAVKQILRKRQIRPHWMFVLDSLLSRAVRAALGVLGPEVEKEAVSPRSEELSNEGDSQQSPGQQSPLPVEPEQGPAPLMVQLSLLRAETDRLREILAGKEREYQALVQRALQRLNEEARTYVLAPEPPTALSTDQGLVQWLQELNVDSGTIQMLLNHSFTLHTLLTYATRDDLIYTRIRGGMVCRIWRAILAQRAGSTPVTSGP
Kind of test: Inhibition of MAP3K6 Lys1 labeling site harbouring IAIKEIPERDSR in human A-375 cells at 0.05 uM by KiNativ Profiling analysis relative to control. It is filed as cell-based.

Test [4] has as its target T3, Dual specificity mitogen-activated protein kinase kinase 6 (Homo sapiens) (UniProt P52564).
T3 sequence (whole entry): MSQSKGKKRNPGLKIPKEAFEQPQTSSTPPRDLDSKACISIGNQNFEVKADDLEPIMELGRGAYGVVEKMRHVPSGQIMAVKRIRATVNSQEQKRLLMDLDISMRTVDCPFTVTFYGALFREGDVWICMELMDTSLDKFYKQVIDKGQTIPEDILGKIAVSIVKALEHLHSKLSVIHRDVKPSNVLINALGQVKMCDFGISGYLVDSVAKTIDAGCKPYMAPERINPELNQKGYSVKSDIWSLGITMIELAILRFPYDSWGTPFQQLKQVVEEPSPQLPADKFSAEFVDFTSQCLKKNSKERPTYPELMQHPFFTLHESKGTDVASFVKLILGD
In words: Inhibition of MAP2K6 ACT labeling site in human Huh-7 cells at 1 uM by KiNativ Profiling analysis relative to control. It is filed as cell-based.

Test [5] deals with Protein-tyrosine kinase 2-beta (Homo sapiens) (UniProt Q14289). In words: Inhibition of PYK2 (unknown origin) at 10 uM by Ambit Kinomescan binding assay relative to control; values are per cent of control.
Chain of Protein-tyrosine kinase 2-beta (Homo sapiens) (Q14289 whole entry, looked up): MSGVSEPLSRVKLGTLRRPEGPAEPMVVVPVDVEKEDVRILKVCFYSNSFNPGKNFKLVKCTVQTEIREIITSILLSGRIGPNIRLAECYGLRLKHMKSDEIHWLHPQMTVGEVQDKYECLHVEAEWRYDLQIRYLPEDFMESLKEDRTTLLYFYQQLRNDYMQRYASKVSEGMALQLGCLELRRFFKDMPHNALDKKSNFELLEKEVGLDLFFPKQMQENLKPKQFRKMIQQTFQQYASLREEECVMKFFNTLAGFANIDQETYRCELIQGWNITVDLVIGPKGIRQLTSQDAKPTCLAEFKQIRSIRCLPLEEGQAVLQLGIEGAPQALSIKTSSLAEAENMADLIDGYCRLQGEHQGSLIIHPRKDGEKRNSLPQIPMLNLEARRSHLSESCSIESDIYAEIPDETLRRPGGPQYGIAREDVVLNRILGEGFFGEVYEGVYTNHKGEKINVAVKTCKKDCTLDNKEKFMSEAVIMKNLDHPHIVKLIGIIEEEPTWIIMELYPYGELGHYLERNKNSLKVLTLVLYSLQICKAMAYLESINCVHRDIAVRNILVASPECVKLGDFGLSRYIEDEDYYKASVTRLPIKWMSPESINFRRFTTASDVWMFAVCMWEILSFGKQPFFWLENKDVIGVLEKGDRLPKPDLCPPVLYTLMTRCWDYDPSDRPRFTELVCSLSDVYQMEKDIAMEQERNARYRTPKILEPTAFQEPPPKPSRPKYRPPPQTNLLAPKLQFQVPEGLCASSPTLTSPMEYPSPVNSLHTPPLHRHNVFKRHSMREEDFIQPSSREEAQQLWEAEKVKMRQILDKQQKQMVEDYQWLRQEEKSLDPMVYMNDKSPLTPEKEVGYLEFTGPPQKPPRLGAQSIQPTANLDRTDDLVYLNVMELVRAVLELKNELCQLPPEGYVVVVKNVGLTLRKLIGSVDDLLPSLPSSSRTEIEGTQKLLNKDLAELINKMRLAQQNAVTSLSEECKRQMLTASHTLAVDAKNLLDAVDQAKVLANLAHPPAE
For test [6], the target named is T4, Aurora kinase A (Homo sapiens) (UniProt O14965).
T4 sequence (whole entry): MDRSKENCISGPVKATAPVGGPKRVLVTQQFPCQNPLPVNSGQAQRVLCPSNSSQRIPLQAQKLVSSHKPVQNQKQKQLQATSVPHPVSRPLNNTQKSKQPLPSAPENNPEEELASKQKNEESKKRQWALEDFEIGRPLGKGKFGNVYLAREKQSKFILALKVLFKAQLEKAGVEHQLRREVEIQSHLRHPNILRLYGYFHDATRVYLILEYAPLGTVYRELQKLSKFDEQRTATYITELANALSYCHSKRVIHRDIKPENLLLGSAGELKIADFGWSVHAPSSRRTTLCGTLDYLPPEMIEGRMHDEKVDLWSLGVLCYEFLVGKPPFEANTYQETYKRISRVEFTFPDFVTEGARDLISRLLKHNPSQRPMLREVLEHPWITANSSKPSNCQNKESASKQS
In words: Inhibition of AurA K2 labeling site harbouring VIHRDIKPENLLLGSAGELK in human Huh-7 cells at 1 uM by KiNativ Profiling analysis relative to control. It is filed as cell-based.

Activity calls are given as the source filed them. No cut-off for these calls is given here.

Chain of Hepatocyte growth factor receptor (Homo sapiens) (P08581 whole entry): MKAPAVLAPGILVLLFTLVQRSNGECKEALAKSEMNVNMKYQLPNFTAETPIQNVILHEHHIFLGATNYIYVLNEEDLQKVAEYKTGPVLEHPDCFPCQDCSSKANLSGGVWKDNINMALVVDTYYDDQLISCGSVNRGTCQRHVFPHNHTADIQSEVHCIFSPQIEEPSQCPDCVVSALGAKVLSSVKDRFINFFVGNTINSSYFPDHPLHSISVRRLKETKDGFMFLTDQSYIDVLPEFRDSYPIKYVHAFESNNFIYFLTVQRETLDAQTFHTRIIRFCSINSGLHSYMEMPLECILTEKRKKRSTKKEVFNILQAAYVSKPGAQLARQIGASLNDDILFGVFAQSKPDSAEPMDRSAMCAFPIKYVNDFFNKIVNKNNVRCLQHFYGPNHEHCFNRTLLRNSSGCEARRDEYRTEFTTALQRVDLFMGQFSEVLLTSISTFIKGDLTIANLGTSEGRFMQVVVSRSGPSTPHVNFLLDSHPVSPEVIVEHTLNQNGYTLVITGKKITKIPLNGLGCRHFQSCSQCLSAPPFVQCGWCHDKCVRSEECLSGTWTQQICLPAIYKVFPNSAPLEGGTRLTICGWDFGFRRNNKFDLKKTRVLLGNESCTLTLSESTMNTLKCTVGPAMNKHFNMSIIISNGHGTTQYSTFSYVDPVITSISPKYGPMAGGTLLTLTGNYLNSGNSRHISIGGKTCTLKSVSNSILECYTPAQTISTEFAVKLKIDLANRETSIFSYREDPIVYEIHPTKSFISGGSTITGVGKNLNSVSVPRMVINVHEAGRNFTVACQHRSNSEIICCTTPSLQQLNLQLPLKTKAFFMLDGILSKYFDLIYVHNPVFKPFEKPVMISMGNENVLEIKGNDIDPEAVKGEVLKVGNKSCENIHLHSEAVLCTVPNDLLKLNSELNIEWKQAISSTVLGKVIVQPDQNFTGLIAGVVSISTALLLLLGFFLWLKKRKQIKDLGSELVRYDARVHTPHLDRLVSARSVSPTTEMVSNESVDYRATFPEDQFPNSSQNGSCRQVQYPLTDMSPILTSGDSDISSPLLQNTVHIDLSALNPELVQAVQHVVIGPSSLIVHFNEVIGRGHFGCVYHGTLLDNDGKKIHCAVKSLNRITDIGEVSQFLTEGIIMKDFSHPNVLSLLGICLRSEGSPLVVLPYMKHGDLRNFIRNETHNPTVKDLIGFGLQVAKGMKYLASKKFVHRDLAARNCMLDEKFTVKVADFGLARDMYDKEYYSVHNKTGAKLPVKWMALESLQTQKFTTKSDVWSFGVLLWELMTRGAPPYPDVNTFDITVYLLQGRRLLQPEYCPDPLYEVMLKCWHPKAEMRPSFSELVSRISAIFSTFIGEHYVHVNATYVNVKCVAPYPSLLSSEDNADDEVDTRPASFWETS

Usually inhibition stands for the relative decrease from the control value, in per cent. Consider `CNc1cc(Oc2cc(C(=O)Nc3cc(N4CCN(C)CC4)cc(C(F)(F)F)c3)ccc2C)ncn1`, for which the inhibition in test [1] came to 2%.

For `CCN1CCN(Cc2ccc(NC(=O)c3ccc(C)c(/C=C/c4cnc5[nH]ccc5c4OC)c3)cc2C(F)(F)F)CC1`, the residual activity in test [2] is 23%.

As to `CCN1CCN(Cc2ccc(NC(=O)c3ccc(C)c(Oc4ccnc5[nH]ccc45)c3)cc2C(F)(F)F)CC1`, the values for the inhibition in test [3] and in test [4] were -3.3% and 9.2%, respectively. In test [5], the residual activity worked out at 2.1%. For the same molecule, in test [6], the inhibition entry was “inactive”.
